Reference: the NIST ThermoML archive (doi:10.1016/j.jct.2015.07.006)
Values joined by “and” are separate entries in the source; they are usually repeats but may differ in a detail not shown here. Equal values may be shown once. Numbers after ± are expanded uncertainties.

Test: mn = molality of the nth substance listed, in mol/kg
Settings: 298.15 K, 100 kPa, Liquid, Vibrating tube method

[O]=[Tc](=[O])(=[O])[OH] [pertechnetic acid] + O
mass density (m1 = 0.000983): 996.83 ± 2 kg/m3
mass density (m1 = 0.00102): 996.91 ± 2 kg/m3
mass density (m1 = 0.00113): 996.91 ± 2 kg/m3 and 996.92 ± 2 kg/m3
mass density (m1 = 0.00124): 996.91 ± 2 kg/m3
mass density (m1 = 0.00159): 996.95 ± 2 kg/m3
mass density (m1 = 0.1): 1008.7 ± 2 kg/m3
mass density (m1 = 0.103): 1008.77 ± 2 kg/m3
mass density (m1 = 0.114): 1009.95 ± 2 kg/m3
mass density (m1 = 0.115): 1010.3 ± 2 kg/m3
mass density (m1 = 0.127): 1011.76 ± 2 kg/m3
mass density (m1 = 0.163): 1016.23 ± 2 kg/m3
mass density (m1 = 0.888): 1097.53 ± 2.2 kg/m3
mass density (m1 = 0.98): 1107.47 ± 2.2 kg/m3
mass density (m1 = 1.007): 1117.47 ± 2.3 kg/m3
mass density (m1 = 1.096): 1127.7 ± 2.3 kg/m3
mass density (m1 = 1.182): 1137.34 ± 2.3 kg/m3
mass density (m1 = 1.265): 1146.5 ± 2.3 kg/m3
mass density (m1 = 1.347): 1155.88 ± 2.3 kg/m3
mass density (m1 = 1.398): 1164.11 ± 2.4 kg/m3
mass density (m1 = 1.535): 1178.55 ± 2.4 kg/m3
mass density (m1 = 1.696): 1195.28 ± 2.4 kg/m3
mass density (m1 = 2.034): 1225.06 ± 2.5 kg/m3
mass density (m1 = 2.106): 1235.3 ± 2.5 kg/m3
mass density (m1 = 2.211): 1243.09 ± 2.5 kg/m3
mass density (m1 = 2.45): 1263.95 ± 2.6 kg/m3
mass density (m1 = 2.555): 1272.74 ± 2.6 kg/m3
mass density (m1 = 2.667): 1283.23 ± 2.6 kg/m3
mass density (m1 = 2.783): 1293.03 ± 2.6 kg/m3
mass density (m1 = 2.908): 1303.34 ± 2.7 kg/m3
mass density (m1 = 3.042): 1314.68 ± 2.7 kg/m3
mass density (m1 = 3.33): 1335.81 ± 2.7 kg/m3
mass density (m1 = 3.49): 1348.06 ± 2.8 kg/m3
mass density (m1 = 3.693): 1374.94 ± 2.8 kg/m3
mass density (m1 = 3.884): 1389.83 ± 2.9 kg/m3
mass density (m1 = 4.038): 1399.11 ± 2.9 kg/m3
mass density (m1 = 4.46): 1434.87 ± 2.9 kg/m3
mass density (m1 = 4.661): 1446.75 ± 3 kg/m3
mass density (m1 = 4.851): 1460.83 ± 3 kg/m3
mass density (m1 = 5.049): 1475.34 ± 3 kg/m3
mass density (m1 = 5.257): 1490.81 ± 3.1 kg/m3
mass density (m1 = 5.485): 1507.23 ± 3.1 kg/m3
mass density (m1 = 5.722): 1523.34 ± 3.1 kg/m3
mass density (m1 = 6.254): 1556.61 ± 3.2 kg/m3
mass density (m1 = 6.537): 1574.08 ± 3.3 kg/m3
mass density (m1 = 6.849): 1593.38 ± 3.3 kg/m3
mass density (m1 = 7.187): 1612.75 ± 3.3 kg/m3
mass density (m1 = 7.54): 1634.13 ± 3.4 kg/m3
mass density (m1 = 7.918): 1657.06 ± 3.4 kg/m3
mass density (m1 = 8.323): 1679.31 ± 3.5 kg/m3
